# Source: patent publication US20020028805A1, “Methods of inhibiting uterotrophic effects of estrogenic agents” (American Home Products Corporation, priority 2000, published 2002)
# “Also recorded” adds a separate entry of the source.
# Test system: immature rat uterus
# Assay: 3-day uterine model: uterine wet weight in immature rats
# Details: for % increase weight (vs. control) / Mean Wet Weight: 3 days; for Agonist effect on uterine wet weight (in words) / Increase in uterine wet weight over control: compound alone; for Agonist effect on uterine wet weight (in words): 10 and 100 μg/rat, three days of treatment, 1-way ANOVA; for Increase in uterine wet weight over control: for TSE-424 the highest increase seen; for Effect on ethinyl estradiol induced uterine wet weight increase (in words): 100 μg in combination with 0.5 μg ethinyl estradiol; for Effect on ethinyl estradiol induced uterine wet weight increase (in words) / Effect on raloxifene induced uterine stimulation (in words): three days; for Effect on raloxifene induced uterine stimulation (in words): co-administered with raloxifene (10 μg; 1 μmg [sic], ~0.2 mg/kg), 1-100 μg, 0.2 mg/kg
# [1] = Experiment No. 2, 10 μg alone, s.c.
# [2] = Experiment No. 2, 100 μg alone, s.c.
# [3] = Experiment No. 4, 10 μg alone, s.c.
# [4] = Experiment No. 4, 100 μg alone, s.c.
# [5] = Experiment No. 1, 10 μg alone, s.c.
# [6] = Experiment No. 1, 100 μg + EE (0.5 μg ethinyl estradiol), s.c.
# [7] = Experiment No. 1, 100 μg alone, s.c.
# [8] = Experiment No. 2, 1 μg + Raloxifene 10 μg
# [9] = Experiment No. 2, 10 μg + Raloxifene 10 μg
# [10] = Experiment No. 2, 50 μg + Raloxifene 10 μg
# [11] = Experiment No. 2, 100 μg + Raloxifene 10 μg
# [12] = Experiment No. 3, 10 μg alone, s.c.
# [13] = Experiment No. 3, 100 μg + EE (0.5 μg ethinyl estradiol), s.c.
# [14] = Experiment No. 3, 100 μg alone, s.c.
# [15] = Experiment No. 4, 1 μg + Raloxifene 10 μg
# [16] = Experiment No. 4, 10 μg + Raloxifene 10 μg
# [17] = Experiment No. 4, 50 μg + Raloxifene 10 μg
# [18] = Experiment No. 4, 100 μg + Raloxifene 10 μg
structure (smiles),measurement,setting,value
"C#C[C@]1(O)CC[C@H]2[C@@H]3CCc4cc(O)ccc4[C@H]3CC[C@@]21C [Ethinyl estradiol, 17α-ethinyl estradiol, reference compound]",% increase weight (vs. control),"Experiment No. 1, 0.5 μg s.c.",205.7%
same,Mean Wet Weight,"Experiment No. 1, 0.5 μg s.c.",63.2 mg
same,% increase weight (vs. control),"Experiment No. 2, 0.5 μg s.c.",317.3%
same,Mean Wet Weight,"Experiment No. 2, 0.5 μg s.c.",85.1 mg
same,% increase weight (vs. control),"Experiment No. 3, 0.5 μg s.c.",262.1%
same,Mean Wet Weight,"Experiment No. 3, 0.5 μg s.c.",94.1 mg
same,% increase weight (vs. control),"Experiment No. 4, 0.5 μg s.c.",406.4%
same,Mean Wet Weight,"Experiment No. 4, 0.5 μg s.c.",98.7 mg
"O=C(c1ccc(OCCN2CCCCC2)cc1)c1c(-c2ccc(O)cc2)sc2cc(O)ccc12 [Raloxifene, raloxifene, reference compound]",% increase weight (vs. control),[1],172.4%
same,Mean Wet Weight,[1],46.2 mg
same,% increase weight (vs. control),[2],145.8%
same,Mean Wet Weight,[2],39.1 mg
same,% increase weight (vs. control),[3],185.2%
same,Mean Wet Weight,[3],45.0 mg
same,% increase weight (vs. control),[4],175.9%
same,Mean Wet Weight,[4],42.7 mg
same,Agonist effect on uterine wet weight (in words),,statistically increased uterine wet weights at both tested doses
same,Increase in uterine wet weight over control,,75-85%
"Cc1c(-c2ccc(O)cc2)n(Cc2ccc(OCCN3CCCCC3)cc2)c2ccc(O)cc12 [ERA-923, 2-(4-Hydroxy-phenyl)-3-methyl-1-(4-(2-piperidin-1-yl-ethoxy)-benzyl]-1H-indol-5-ol]",Effect on ethinyl estradiol induced uterine wet weight increase (in words),,reduced ethinyl estradiol induced wet weight increases to control values; also recorded: reduced the increased wet weight stimulated by ethinyl estradiol to control
same,% increase weight (vs. control),[5],129.8%
same,Mean Wet Weight,[5],39.9 mg
same,% increase weight (vs. control),[6],79.1%
same,Mean Wet Weight,[6],24.3 mg
same,% increase weight (vs. control),[7],89.3%
same,Mean Wet Weight,[7],27.5 mg
same,% increase weight (vs. control),[8],144.4%
same,Mean Wet Weight,[8],38.7 mg
same,% increase weight (vs. control),[9],100.8%
same,Mean Wet Weight,[9],27.0 mg
same,% increase weight (vs. control),[1],93.5%
same,Mean Wet Weight,[1],25.1 mg
same,% increase weight (vs. control),[10],81.6%
same,Mean Wet Weight,[10],21.9 mg
same,% increase weight (vs. control),[11],81.6%
same,Mean Wet Weight,[11],21.9 mg
same,% increase weight (vs. control),[2],75.1%
same,Mean Wet Weight,[2],20.1 mg
same,Effect on raloxifene induced uterine stimulation (in words),,antagonized the uterine stimulation; also recorded: reduced to control values or less at all doses except for 1 μg
same,Agonist effect on uterine wet weight (in words),,neither ERA-923 nor TSE-424 statistically increased uterine wet weight; also recorded: neither ERA-923 (Experiment No.1) nor TSE-424 (Experiment No. 3) treatments resulted in a statistical increase in uterine wet weight
"Cc1c(-c2ccc(O)cc2)n(Cc2ccc(OCCN3CCCCCC3)cc2)c2ccc(O)cc12 [TSE-424, 1-[4-(2-Azepan-1yl-ethoxy)-benzyl]-2-(4-hydroxy-phenyl)-3-methyl-1H-indol-5-ol]",Effect on ethinyl estradiol induced uterine wet weight increase (in words),,reduced ethinyl estradiol induced wet weight increases to control values; also recorded: less than control values
same,% increase weight (vs. control),[12],92.4%
same,Mean Wet Weight,[12],33.2 mg
same,% increase weight (vs. control),[13],77.7%
same,Mean Wet Weight,[13],27.9 mg
same,% increase weight (vs. control),[14],81.9%
same,Mean Wet Weight,[14],29.4 mg
same,% increase weight (vs. control),[15],170.4%
same,Mean Wet Weight,[15],41.4 mg
same,% increase weight (vs. control),[16],142%
same,Mean Wet Weight,[16],34.5 mg
same,% increase weight (vs. control),[3],135.0%
same,Mean Wet Weight,[3],32.7 mg
same,% increase weight (vs. control),[17],139.3%
same,Mean Wet Weight,[17],33.8 mg
same,% increase weight (vs. control),[18],136.5%
same,Mean Wet Weight,[18],33.2 mg
same,% increase weight (vs. control),[4],109.4%
same,Mean Wet Weight,[4],26.6 mg
same,Effect on raloxifene induced uterine stimulation (in words),,antagonized the uterine stimulation; also recorded: reduced the increased wet weight stimulated by raloxifene to the highest increase seen with TSE-424 alone
same,Agonist effect on uterine wet weight (in words),,neither ERA-923 nor TSE-424 statistically increased uterine wet weight; also recorded: neither ERA-923 (Experiment No.1) nor TSE-424 (Experiment No. 3) treatments resulted in a statistical increase in uterine wet weight
same,Increase in uterine wet weight over control,,35%
